Data: PubChem BioAssay AID330 (DTP/NCI, 2004)
“And” between values parts separate entries of the source, which are not always exact repeats. Equal values may be shown once. Toxic doses and inconclusive results are not listed. The calls were made as follows: active = survival T/C of 150% or more; inactive = T/C below 125% in these data.

System: P388 leukemia ip, CD2F1 mice, survival T/C
Assay: NCI In Vivo Anticancer Drug Screen. Data for tumor model P388 Leukemia (intraperitoneal) in CD2F1 (CDF1) mice
Conditions: endpoint: median survival time, higher = longer survival
Procedure, shortened: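 Mice carrying the transplanted tumor received test compound or vehicle. Survival was recorded in each group, and the value is the treated-group measurement divided by that of the vehicle-treated control group.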

[1] = dose: 50.0 mg/kg/injection, schedule: Q04DX003 (ip), vehicle: saline with Tween-80
[2] = dose: 100.0 mg/kg/injection, schedule: Q04DX003 (ip), vehicle: saline with Tween-80
[3] = dose: 200.0 mg/kg/injection, schedule: Q04DX003 (ip), vehicle: saline with Tween-80
[4] = dose: 400.0 mg/kg/injection, schedule: Q04DX003 (ip), vehicle: saline with Tween-80
[5] = dose: 100.0 mg/kg/injection, schedule: Q01DX001 (ip), vehicle: saline with Tween-80
[6] = dose: 200.0 mg/kg/injection, schedule: Q01DX001 (ip), vehicle: saline with Tween-80

Measured: T/C

Cn1c2ccccc2c2nnc(N/N=C/c3ccccn3)nc21
inactive: dose: 100.0 mg/kg/injection, schedule: Q04DX002 (ip), vehicle: saline with Tween-80 98 % of control and 111 % of control and 113 % of control | dose: 200.0 mg/kg/injection, schedule: Q04DX002 (ip), vehicle: saline with Tween-80 106 % of control and 113 % of control and 114 % of control | dose: 400.0 mg/kg/injection, schedule: Q04DX002 (ip), vehicle: saline with Tween-80 106 % of control and 113 % of control | dose: 800.0 mg/kg/injection, schedule: Q04DX002 (ip), vehicle: saline with Tween-80 104 % of control and 114 % of control

C[Si](C)(C[P+](=O)[O][Sn]([CH3])([CH3])[O][P+](=O)C[Si](C)(C)c1ccccc1)c1ccccc1 (stereo not drawn)
inactive: dose: 3.75 mg/kg/injection, schedule: Q01DX005 (ip), vehicle: saline with Tween-80 100 % of control | dose: 7.5 mg/kg/injection, schedule: Q01DX005 (ip), vehicle: saline with Tween-80 93 % of control

COc1ccc(/C=N/Nc2ccc([N+](=O)[O-])cc2[N+](=O)[O-])cc1
inactive: [1] 93 % of control | [2] 94 % of control | [3] 88 % of control | [4] 91 % of control

Cc1noc(N)c1-n1c(C)ccc1C
inactive: [2] 95 % of control | [3] 100 % of control | [4] 100 % of control

CC(C)C1SCCS1
inactive: dose: 50.0 mg/kg/injection, schedule: Q01DX001 (ip), vehicle: saline with Tween-80 102 % of control | [5] 106 % of control | [6] 99 % of control

CCOc1cc(/C=C2\SC(=O)N(CC)C2=O)ccc1O
inactive: dose: 50.0 mg/kg/injection, schedule: Q01DX009 (ip), vehicle: saline with Tween-80 108 % of control | dose: 100.0 mg/kg/injection, schedule: Q01DX009 (ip), vehicle: saline with Tween-80 109 % of control | dose: 200.0 mg/kg/injection, schedule: Q01DX009 (ip), vehicle: saline with Tween-80 90 % of control

O=S1(=O)C=C(c2cccs2)C1
inactive: dose: 25.0 mg/kg/injection, schedule: Q04DX003 (ip), vehicle: saline with Tween-80 97 % of control | [1] 109 % of control | [2] 105 % of control and 112 % of control

NN(C(=O)c1ccccc1)C1CCCCC1
inactive: dose: 12.5 mg/kg/injection, schedule: Q04DX003 (ip), vehicle: saline 95 % of control | dose: 25.0 mg/kg/injection, schedule: Q04DX003 (ip), vehicle: saline 104 % of control | dose: 50.0 mg/kg/injection, schedule: Q04DX003 (ip), vehicle: saline 100 % of control

COc1nc2[nH]ccc2c(=O)[nH]1
inactive: dose: 60.0 mg/kg/injection, schedule: Q01DX005 (ip), vehicle: saline with Tween-80 94 % of control | dose: 120.0 mg/kg/injection, schedule: Q01DX005 (ip), vehicle: saline with Tween-80 86 % of control | dose: 240.0 mg/kg/injection, schedule: Q01DX005 (ip), vehicle: saline with Tween-80 96 % of control

CC(C)(C)OC(=O)N/C=C/c1ccccc1
inactive: dose: 100.0 mg/kg/injection, schedule: Q04DX002 (ip), vehicle: suspension in saline 101 % of control | dose: 200.0 mg/kg/injection, schedule: Q04DX002 (ip), vehicle: suspension in saline 92 % of control | dose: 400.0 mg/kg/injection, schedule: Q04DX002 (ip), vehicle: suspension in saline 94 % of control

O=C(O)CCN1CCCc2ccccc21
inactive: dose: 100.0 mg/kg/injection, schedule: Q04DX003 (ip), vehicle: other 100 % of control | dose: 200.0 mg/kg/injection, schedule: Q04DX003 (ip), vehicle: other 100 % of control | dose: 400.0 mg/kg/injection, schedule: Q04DX003 (ip), vehicle: other 109 % of control

C/C(=N\NC(=S)N1CCC(c2ccccc2)CC1)c1nccnc1C
inactive: dose: 50.0 mg/kg/injection, schedule: Q01DX005 (ip), vehicle: saline with Tween-80 100 % of control | dose: 100.0 mg/kg/injection, schedule: Q01DX005 (ip), vehicle: saline with Tween-80 102 % of control | dose: 200.0 mg/kg/injection, schedule: Q01DX005 (ip), vehicle: saline with Tween-80 100 % of control

CC1=C(C)C(=O)C2=C(OCCO2)C1=O
inactive: dose: 15.0 mg/kg/injection, schedule: Q01DX005 (ip), vehicle: Klucel (hydroxypropylcellulose) (HPC) 100 % of control | dose: 30.0 mg/kg/injection, schedule: Q01DX005 (ip), vehicle: Klucel (hydroxypropylcellulose) (HPC) 106 % of control | dose: 60.0 mg/kg/injection, schedule: Q01DX005 (ip), vehicle: Klucel (hydroxypropylcellulose) (HPC) 104 % of control

CC(=O)O.CC(C)=CCC(OC(=O)C=C(C)C)c1cc(O)c2c(O)ccc(O)c2c1O.[Cr] (stereo not drawn)
inactive: [5] 93 % of control | [6] 93 % of control | dose: 400.0 mg/kg/injection, schedule: Q01DX001 (ip), vehicle: saline with Tween-80 94 % of control

COC(=O)c1c(OC)c(Cl)c2cc3c(c(O)c2c1C)C(=O)[C@@]1(O)C(=O)C=C(OC)[C@H](O)[C@@]1(O)C3=O
inactive: dose: 11.0 mg/kg/injection, schedule: Q01DX005 (ip), vehicle: saline with Tween-80 103 % of control | dose: 22.0 mg/kg/injection, schedule: Q01DX005 (ip), vehicle: saline with Tween-80 105 % of control | dose: 44.0 mg/kg/injection, schedule: Q01DX005 (ip), vehicle: saline with Tween-80 89 % of control | dose: 88.0 mg/kg/injection, schedule: Q01DX005 (ip), vehicle: saline with Tween-80 94 % of control | dose: 176.0 mg/kg/injection, schedule: Q01DX005 (ip), vehicle: saline with Tween-80 99 % of control
